Activity calls are given as the source filed them.
What was measured:
[1] = THP-1 cell cytotoxicity, dose response, cytotoxicity control for non-replicating M. tuberculosis project (AID 489025); format: functional
[2] = Vero E6 cell cytotoxicity, dose response, cytotoxicity control for non-replicating M. tuberculosis project, secondary assay (AID 492998); format: functional, VeroE6; conditions: Vero C1008
[3] = biological target: T1, Microphthalmia-associated transcription factor (Homo sapiens, UniProt O75030); test: reducers of TRPM1 reporter luminescence, concentration series – cell-based, SK-MEL-5, cherry-picked, set 3, MITF inhibitor project, dose response (AID 493073); format: functional;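 further: SK-MEL-5 melanoma cells with luciferase driven by the MITF target TRPM1 promoter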
T1 sequence (O75030 whole entry): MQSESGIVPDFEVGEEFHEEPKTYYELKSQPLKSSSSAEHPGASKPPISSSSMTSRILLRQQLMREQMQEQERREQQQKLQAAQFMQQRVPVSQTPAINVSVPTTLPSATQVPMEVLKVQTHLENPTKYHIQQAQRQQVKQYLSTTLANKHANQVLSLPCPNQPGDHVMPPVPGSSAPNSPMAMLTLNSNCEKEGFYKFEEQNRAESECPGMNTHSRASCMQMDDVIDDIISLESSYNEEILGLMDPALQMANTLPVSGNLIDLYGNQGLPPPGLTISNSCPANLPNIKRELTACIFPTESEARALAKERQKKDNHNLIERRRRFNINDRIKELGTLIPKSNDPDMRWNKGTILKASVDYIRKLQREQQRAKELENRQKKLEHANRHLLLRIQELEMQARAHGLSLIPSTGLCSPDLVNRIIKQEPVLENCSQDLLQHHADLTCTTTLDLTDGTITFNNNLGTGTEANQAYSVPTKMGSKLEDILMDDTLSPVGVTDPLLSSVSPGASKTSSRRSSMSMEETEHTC

cells [4] = format: functional, cell-based
Protein Rev = Protein Rev (Human immunodeficiency virus type 1 group M subtype B (isolate HXB2)(HIV-1), UniProt P04618); test: blockers of HIV Rev/RRE RNA complex – biochemical, fluorescence polarization, HIV-1, dose response (AID 434976); set-up: species or system Human immunodeficiency virus 1
Protein Rev, sequence (P04618 whole entry): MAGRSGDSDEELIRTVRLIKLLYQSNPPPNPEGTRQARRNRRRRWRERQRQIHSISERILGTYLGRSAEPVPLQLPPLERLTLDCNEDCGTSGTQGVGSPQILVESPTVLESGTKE

[5] = decrease of insulin promoter-GFP reporter – imaging, high-content screening, mouse beta cells (AID 1628); format: functional; conditions: MIN6
[6] = alpha-synuclein stem-loop luciferase translation blockers – H4 neuroglioma cells, luminescence, confirmation (AID 1988); format: functional, cell-based
[7] = biological target: Female germline-specific tumor suppressor gld-1 (Caenorhabditis elegans, UniProt Q17339); test: blockers of GLD-1/TGE RNA complex formation – biochemical, fluorescence polarization, C. elegans, dose response (AID 2802);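 further: fluorescence polarization of labeled TGE RNA bound by purified gld-1 protein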
Female germline-specific tumor suppressor gld-1, sequence (Q17339 whole entry): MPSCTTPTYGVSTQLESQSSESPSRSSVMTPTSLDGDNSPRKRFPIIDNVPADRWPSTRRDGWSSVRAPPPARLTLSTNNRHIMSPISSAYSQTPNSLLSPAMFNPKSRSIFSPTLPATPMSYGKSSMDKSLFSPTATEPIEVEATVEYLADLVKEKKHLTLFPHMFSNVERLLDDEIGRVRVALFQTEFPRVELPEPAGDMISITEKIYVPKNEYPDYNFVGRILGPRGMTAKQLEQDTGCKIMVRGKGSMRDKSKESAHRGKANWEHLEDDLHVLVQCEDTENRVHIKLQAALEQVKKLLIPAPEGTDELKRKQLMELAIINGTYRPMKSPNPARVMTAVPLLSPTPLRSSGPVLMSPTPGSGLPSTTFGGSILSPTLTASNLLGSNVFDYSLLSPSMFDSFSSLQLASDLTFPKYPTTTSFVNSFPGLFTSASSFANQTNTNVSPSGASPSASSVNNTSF

[8] = MIN6 cell viability loss – mouse insulinoma, cytotoxicity control, dose response (AID 2122); format: functional;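 further: confirmatory high-throughput counterscreen run to flag cytotoxic compounds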
[9] = Luminescence Cell-Based Dose Response HTS to Identify Inhibitors of 5'UTR Stem-Loop Driven Prion Protein mRNA Translation in H4 Neuroglioblastoma Cells. [Related pubchem assays: 1827 (Project Summary), 1813 (Primary HTS)]; format: functional
cells [10] = format: functional, cell-based; remark: listed apart in the source
[11] = luciferase reporter signal suppression in cells – H4 neuroglioma cells, luminescence, dose response (AID 1990); format: functional, cell-based
INS1 = test: INS-1E survival protection against cytokine death – cell-based, luminescence, retest, dose response (AID 449756); format: functional; conditions: Rattus norvegicus;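 further: cell death triggered by IL-1 beta plus TNF-alpha plus IFN-gamma mixture; protective hits raise ATP signal compared with cytokine alone wells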
HEK293 [12] = test: cells; format: functional, cell-based; conditions: Homo sapiens
HEK293 [13] = test: inhibition of NOD1-driven NF-kB reporter – cell-based, luminescence, uHTS, primary screen (AID 1578); format: functional; conditions: Homo sapiens
[14] = non-specific 3'UTR reporter inhibition in Clone20-Shn3RL – cell-based, Renilla luciferase, cherry-picked, counter-screen for Shn3 inhibitor project, dose response (AID 624133); format: functional
HEK293 [15] = test: NOD2 signaling inhibitors in MDP-stimulated cells, cell-based, uHTS, luminescence (AID 2001); format: functional; conditions: Homo sapiens
[16] = reduction of Shn3 3'UTR-driven luciferase in osteoblasts – cell-based, Clone20 osteoblasts, firefly luciferase, cherry-picked, dose response (AID 624132); format: functional;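 further: firefly luciferase luminescence from reporter carrying the Shn3 3'UTR in osteoblasts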
[17] = loss of viability in HepG2 cells – cell-based, CellTiter-Glo, cherry-picked, cytotoxicity control for Shn3 inhibitor project, dose response (AID 624134); format: functional
HEK293 [18] = test: cells; format: functional, cell-based; conditions: Homo sapiens; remark: listed apart in the source
[19] = biological target: T2, Runt-related transcription factor 1/Core-binding factor subunit beta (Homo sapiens, UniProt Q01196+Q13951); test: Runt domain/CBFb-SMMHC interaction disruptors – biochemical, TR-FRET (AID 1438); format: protein assay
T2 sequence (Q01196 whole entry, the tested form may be a part): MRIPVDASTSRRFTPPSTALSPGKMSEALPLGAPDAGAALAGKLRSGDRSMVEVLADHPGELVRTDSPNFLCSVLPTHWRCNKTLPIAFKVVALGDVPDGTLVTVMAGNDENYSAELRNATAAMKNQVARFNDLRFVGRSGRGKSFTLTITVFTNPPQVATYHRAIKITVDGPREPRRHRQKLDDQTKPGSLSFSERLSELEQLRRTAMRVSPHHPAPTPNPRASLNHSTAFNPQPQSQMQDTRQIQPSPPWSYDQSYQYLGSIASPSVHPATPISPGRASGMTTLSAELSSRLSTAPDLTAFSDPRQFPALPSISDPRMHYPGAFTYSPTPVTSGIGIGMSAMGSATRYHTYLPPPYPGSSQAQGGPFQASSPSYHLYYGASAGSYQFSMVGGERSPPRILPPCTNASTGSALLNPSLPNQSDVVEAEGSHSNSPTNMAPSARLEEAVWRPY
T2 sequence (Q13951 whole entry, the tested form may be a part): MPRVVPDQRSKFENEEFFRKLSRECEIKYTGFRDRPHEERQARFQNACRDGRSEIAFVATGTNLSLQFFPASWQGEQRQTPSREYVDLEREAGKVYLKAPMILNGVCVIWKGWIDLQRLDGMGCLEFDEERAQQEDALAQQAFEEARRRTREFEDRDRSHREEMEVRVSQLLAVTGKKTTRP

[20] = biological target: T2, Runt-related transcription factor 1/Core-binding factor subunit beta; test: disruptors of Runt domain/CBFb-SMMHC interaction – biochemical, FRET, Cerulean-Runt, Venus-CBFb-SMMHC, uHTS, […] (AID 1434); format: protein assay
Cytochrome P450 2C9 = Cytochrome P450 2C9 (Homo sapiens, UniProt P11712)
Cytochrome P450 2C9, sequence (P11712 whole entry): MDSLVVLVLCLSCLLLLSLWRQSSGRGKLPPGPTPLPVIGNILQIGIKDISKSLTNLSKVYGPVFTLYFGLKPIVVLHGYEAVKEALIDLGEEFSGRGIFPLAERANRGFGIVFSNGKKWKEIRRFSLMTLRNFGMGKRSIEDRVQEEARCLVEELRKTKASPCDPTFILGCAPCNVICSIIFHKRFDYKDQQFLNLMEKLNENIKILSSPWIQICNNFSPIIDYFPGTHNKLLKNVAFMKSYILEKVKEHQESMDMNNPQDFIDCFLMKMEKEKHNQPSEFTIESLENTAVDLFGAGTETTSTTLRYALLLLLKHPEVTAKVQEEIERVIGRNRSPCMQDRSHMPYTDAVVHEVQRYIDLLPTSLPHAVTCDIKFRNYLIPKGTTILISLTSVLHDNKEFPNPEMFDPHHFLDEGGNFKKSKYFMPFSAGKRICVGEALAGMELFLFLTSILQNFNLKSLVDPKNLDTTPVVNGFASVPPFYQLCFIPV

Cytochrome P450 2C19 = Cytochrome P450 2C19 (Homo sapiens, UniProt P33261); test: Cytochrome panel assay with activity outcomes. Panel member name: p450-cyp2c19 Compounds with AC50 equal or less than 10 uM are considered active; format: functional; conditions: read-out: AC50
Cytochrome P450 2C19, sequence (P33261 whole entry): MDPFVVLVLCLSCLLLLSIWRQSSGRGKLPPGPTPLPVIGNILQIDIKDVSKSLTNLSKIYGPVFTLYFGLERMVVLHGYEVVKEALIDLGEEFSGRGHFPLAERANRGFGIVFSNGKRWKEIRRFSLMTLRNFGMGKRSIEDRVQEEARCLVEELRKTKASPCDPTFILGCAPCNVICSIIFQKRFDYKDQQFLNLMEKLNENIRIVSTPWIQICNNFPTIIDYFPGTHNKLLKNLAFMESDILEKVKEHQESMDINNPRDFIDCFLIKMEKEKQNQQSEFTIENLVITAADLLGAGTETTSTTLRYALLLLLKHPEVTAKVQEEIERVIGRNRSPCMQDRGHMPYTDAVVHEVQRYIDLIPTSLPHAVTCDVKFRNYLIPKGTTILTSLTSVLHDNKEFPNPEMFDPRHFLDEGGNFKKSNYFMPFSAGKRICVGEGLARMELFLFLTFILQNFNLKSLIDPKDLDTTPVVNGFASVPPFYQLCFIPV

Cytochrome P450 3A4 = Cytochrome P450 3A4 (Homo sapiens, UniProt P08684);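 further: CYP3A4 tested as one member of a cytochrome P450 panel screen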
Cytochrome P450 3A4, sequence (P08684 whole entry): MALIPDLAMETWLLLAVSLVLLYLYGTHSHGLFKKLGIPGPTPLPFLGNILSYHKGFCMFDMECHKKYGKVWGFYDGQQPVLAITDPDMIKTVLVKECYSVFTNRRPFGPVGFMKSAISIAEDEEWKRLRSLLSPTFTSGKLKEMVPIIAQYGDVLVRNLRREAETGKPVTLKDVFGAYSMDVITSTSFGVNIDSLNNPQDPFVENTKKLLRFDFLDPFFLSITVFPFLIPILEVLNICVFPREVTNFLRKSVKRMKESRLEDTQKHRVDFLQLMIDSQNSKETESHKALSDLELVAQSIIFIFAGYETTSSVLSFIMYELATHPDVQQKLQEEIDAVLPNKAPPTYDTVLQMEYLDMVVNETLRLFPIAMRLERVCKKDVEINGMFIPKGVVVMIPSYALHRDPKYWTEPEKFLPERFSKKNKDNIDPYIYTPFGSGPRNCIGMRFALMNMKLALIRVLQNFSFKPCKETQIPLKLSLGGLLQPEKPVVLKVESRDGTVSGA

Keap1/Nrf2 = Keap1/Nrf2 (Homo sapiens, UniProt Q14145); test: disruptors of Keap1 binding to Nrf2 peptide – biochemical, fluorescence polarization, cherry-picked samples, dose response (AID 588683)
Keap1/Nrf2, sequence (Q16236 whole entry): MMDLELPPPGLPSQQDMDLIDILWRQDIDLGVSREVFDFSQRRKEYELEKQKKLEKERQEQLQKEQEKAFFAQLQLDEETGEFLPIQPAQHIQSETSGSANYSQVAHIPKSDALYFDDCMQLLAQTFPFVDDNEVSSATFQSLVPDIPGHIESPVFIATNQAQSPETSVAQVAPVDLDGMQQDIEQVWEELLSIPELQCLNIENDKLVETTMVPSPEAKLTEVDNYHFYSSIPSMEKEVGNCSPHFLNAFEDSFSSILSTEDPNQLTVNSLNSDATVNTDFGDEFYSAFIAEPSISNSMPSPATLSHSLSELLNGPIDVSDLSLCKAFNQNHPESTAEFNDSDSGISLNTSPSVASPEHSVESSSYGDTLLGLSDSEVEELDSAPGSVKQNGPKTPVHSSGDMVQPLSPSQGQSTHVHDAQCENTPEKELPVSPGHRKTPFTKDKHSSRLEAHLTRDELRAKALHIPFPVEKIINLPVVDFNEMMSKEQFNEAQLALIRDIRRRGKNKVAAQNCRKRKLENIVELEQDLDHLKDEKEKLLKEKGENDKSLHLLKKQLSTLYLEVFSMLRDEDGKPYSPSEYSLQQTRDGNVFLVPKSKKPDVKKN
Keap1/Nrf2, sequence (Q14145 whole entry): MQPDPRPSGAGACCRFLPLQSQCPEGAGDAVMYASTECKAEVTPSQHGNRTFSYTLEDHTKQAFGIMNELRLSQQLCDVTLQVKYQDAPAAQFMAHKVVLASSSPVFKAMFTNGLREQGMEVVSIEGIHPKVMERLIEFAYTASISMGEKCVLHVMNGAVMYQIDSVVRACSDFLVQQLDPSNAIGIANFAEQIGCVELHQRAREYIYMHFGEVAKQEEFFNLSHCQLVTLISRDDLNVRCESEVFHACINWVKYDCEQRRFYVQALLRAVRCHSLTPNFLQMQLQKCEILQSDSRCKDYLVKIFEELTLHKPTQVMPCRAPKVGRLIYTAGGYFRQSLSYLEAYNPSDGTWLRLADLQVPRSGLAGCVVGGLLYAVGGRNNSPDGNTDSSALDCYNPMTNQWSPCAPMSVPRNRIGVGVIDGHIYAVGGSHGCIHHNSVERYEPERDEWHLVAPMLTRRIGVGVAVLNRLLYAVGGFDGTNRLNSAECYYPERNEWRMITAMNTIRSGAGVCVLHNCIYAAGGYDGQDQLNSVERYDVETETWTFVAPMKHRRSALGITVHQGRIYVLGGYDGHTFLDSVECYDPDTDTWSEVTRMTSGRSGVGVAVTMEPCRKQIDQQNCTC

[21] = biological target: Dual specificity tyrosine-phosphorylation-regulated kinase 1A (Rattus norvegicus, UniProt Q63470); format: biochemical, Homo sapiens
[22] = biological target: T3, Mannose-6-phosphate isomerase (Homo sapiens, UniProt P34949); test: phosphomannose isomerase inhibition – biochemical, fluorescence intensity, confirmation (AID 1535)
T3 sequence (P34949 whole entry): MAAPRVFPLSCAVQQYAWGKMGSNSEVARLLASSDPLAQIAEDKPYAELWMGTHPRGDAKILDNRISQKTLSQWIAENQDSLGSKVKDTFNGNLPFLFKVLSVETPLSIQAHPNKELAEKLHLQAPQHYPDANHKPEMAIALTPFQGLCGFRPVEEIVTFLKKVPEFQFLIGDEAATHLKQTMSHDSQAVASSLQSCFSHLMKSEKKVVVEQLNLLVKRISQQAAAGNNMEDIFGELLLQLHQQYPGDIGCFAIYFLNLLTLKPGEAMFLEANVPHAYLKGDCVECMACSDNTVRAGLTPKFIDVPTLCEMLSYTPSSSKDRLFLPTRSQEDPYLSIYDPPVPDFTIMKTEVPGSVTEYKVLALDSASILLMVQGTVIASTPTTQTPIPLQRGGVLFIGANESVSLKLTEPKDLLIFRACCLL

Phosphomannomutase 2 = biological target: T4, Phosphomannomutase 2 (Homo sapiens, UniProt O15305); test: Counter screen SAR assay for PMM2 inhibitors via a fluorescence intensity assay. [Related pubchem assays (depositor defined):AID1545, AID1574]
T4 sequence (O15305 whole entry): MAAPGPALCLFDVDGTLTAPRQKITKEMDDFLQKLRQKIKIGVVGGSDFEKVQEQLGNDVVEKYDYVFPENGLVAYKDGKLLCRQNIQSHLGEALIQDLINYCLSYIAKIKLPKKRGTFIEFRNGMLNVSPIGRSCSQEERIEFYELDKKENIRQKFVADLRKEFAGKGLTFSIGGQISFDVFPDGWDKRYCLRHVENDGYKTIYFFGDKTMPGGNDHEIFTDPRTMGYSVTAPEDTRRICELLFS

[23] = biological target: Phosphoethanolamine/phosphocholine phosphatase (Homo sapiens, UniProt Q8TCT1); test: SAR assay for compounds that inhibit PHOSPHO1. [Related pubchem assays (depositor defined):AID1545, AID1565, AID1574]
Phosphoethanolamine/phosphocholine phosphatase, sequence (Q8TCT1 whole entry): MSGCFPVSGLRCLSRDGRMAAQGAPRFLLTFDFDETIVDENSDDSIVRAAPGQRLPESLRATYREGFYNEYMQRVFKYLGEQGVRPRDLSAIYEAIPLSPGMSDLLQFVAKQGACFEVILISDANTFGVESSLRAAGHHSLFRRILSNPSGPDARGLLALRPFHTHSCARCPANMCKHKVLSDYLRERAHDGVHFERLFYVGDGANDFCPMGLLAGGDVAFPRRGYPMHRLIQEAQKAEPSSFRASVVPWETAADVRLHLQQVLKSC

SMILES: C/C(=N\NC(=O)CCc1ccccc1)C1C(=O)c2ccccc2C1=O
- CC50 [1]: 13.8 µM (active)
- CC50 [2]: 11.8 µM (active)

SMILES: CCOC(=O)c1[nH]cnc1N=Nc1c(O)ccc2ccccc12
- AC50 [3]: 3.76 µM (active)
- EC50 (cells [4]): > 350 µM (not active)
- IC50 (Protein Rev): > 75.4 µM (not active)
- IC50 [5]: 2.22 µM (active)
- EC50 [6]: 8.61 µM (active)
- IC50 [7]: 6.23 µM (active)
- IC50 [8]: 3.2 µM (active)
- EC50 [9]: 9.18 µM (active)
- EC50 (cells [10]): > 350 µM (not active)
- EC50 [11]: 7.69 µM (active)
- AC50 (INS1): 1.21 µM (active)

SMILES: S=C(NNc1ccnc2cc(Cl)ccc12)Nc1ccc(Cl)cc1Cl
- IC50 (HEK293 [12]): 11.2 µM (active)
- EC50 (HEK293 [13]): > 20 µM (inactive)
- AC50 [14]: 3.96 µM (active)
- IC50 (HEK293 [15]): 11.6 µM (inactive)
- AC50 [16]: 4.9 µM (active)
- AC50 [17]: > 70 µM (inactive)
- IC50 (HEK293 [18]): > 20 µM (inactive)

SMILES: N#Cc1c2c(c(NCc3cccnc3)n3c1nc1ccccc13)CCC2
- IC50 [19]: 53.5 µM (inactive)
- IC50 [20]: 57 µM (inactive)

SMILES: CC(C)c1ccc(N(C(=O)C(F)(F)F)C(C(=O)NC2CCCCC2)c2ccncc2)cc1 (stereo not given)
- AC50 (Cytochrome P450 2C9): 2.24 µM (inconclusive)
- AC50 (Cytochrome P450 2C19): 1.12 µM (inconclusive)
- AC50 (Cytochrome P450 3A4): inconclusive

SMILES: O=C1c2ccccc2C(=O)c2c1ccc(O)c2O [ATHRAQUINONES A]
- AC50 (Keap1/Nrf2): > 52 µM (inactive)
- AC50 [21]: 4.54 µM (active)

SMILES: O=c1c2ccccc2sn1-c1ccc(C(F)(F)F)cc1
- IC50 [22]: 41.2 µM (active)
- IC50 (Phosphomannomutase 2): > 100 µM (inactive)
- IC50 [23]: 34 µM (inactive)

Source: ChEMBL document CHEMBL1201862, “PubChem BioAssay data set” (2004)
